These results are taken from patent US12187723B2 (BRISTOL-MYERS SQUIBB COMPANY, priority 2019, dated 2025).

The target of the assay is T1, human TLR8 (Homo sapiens, UniProt Q9NR97).
T1 construct: host or cells: HEK-Blue cells
T1 sequence (Q9NR97 27-1041): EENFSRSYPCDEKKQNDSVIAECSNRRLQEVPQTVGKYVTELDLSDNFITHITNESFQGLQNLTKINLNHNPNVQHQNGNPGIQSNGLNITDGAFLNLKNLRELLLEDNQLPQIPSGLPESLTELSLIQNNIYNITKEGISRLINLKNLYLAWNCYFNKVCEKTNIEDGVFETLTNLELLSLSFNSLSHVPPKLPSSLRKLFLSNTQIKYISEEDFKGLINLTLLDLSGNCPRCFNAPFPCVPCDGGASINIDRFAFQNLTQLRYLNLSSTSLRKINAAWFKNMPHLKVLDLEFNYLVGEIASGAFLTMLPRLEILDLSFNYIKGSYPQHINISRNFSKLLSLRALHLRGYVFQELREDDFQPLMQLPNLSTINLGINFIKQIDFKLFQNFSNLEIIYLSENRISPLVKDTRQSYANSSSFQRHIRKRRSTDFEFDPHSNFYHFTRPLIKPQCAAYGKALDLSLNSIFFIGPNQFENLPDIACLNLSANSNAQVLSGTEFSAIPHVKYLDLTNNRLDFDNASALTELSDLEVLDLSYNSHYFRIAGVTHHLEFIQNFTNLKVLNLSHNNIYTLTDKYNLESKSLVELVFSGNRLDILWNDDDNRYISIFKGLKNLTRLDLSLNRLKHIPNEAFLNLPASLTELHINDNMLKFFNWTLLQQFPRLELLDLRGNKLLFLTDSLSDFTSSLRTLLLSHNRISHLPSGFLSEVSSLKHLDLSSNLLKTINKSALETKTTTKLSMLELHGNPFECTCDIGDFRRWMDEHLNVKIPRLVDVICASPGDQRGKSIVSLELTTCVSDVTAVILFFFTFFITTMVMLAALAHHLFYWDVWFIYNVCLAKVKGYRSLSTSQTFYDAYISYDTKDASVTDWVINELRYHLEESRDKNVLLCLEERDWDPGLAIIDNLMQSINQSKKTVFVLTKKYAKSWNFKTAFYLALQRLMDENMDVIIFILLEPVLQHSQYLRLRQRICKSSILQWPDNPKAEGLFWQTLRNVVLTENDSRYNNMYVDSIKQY
Kind of assay: TLR8 inhibition reporter assay (HEK-Blue SEAP). In kind it is cell-based. To be noted: HEK-Blue cells overexpressing human TLR8, R848 15.9 μM, 22 hour incubation. In outline: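 Dose–response from 0.05 nM to 50 μM was run in HEK-Blue human TLR7, TLR8 and TLR9 reporter cells. After 30 min at room temperature with compound, ligand was added (TLR7 gardiquimod 7.5 μM; TLR8 R848 15.9 μM; TLR9 ODN2006 5 nM) and SEAP measured next day, at 22 h.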
Background: Reporter assays use an easily measured gene product as a stand-in for the process of interest.
As to `COc1cc(-c2cc3[nH]c(=O)n(C4CCC(N5CC[C@H](F)C5)CC4)c3cc2C(C)C)cn2ncnc12` (stereo partly drawn) [Example 286, (S)-1-(4-(3-fluoropyrrolidin-1-yl)cyclohexyl)-6-isopropyl-5-(8-methoxy-[1,2,4]triazolo[1,5-a]pyridin-6-yl)-1,3-dihydro-2H-benzo[d]imidazol-2-one], the IC50 (commonly the point on the concentration scale where inhibition reaches its midpoint) was 0.9 nM. This lies in the sub-nanomolar range.
Then `COc1cc(-c2cc3[nH]c(=O)n(C4CCC(N5CCSCC5)CC4)c3cc2C(C)C)cn2ncnc12` (centres unmarked) [Example 250, 6-isopropyl-5-(8-methoxy-[1,2,4]triazolo[1,5-a]pyridin-6-yl)-1-(4-thiomorpholinocyclohexyl)-1,3-dihydro-2H-benzo[d]imidazol-2-one], with 0.36 nM; and `Cc1c(-c2cc3[nH]c(=O)n(C4CCC(N5CCC6(CC5)COC6)CC4)c3cc2C(C)C)cn2ncnc2c1C` (single isomer, unassigned) [Example 283, 1-(4-(2-oxa-7-azaspiro[3.5]nonan-7-yl)cyclohexyl)-5-(7,8-dimethyl-[1,2,4]triazolo[1,5-a]pyridin-6-yl)-6-isopropyl-1,3-dihydro-2H-benzo[d]imidazol-2-one], with 0.09 nM; and `COc1c(C)c(-c2cc3[nH]c(=O)n(C4CCC(N5CCCOCC5)CC4)c3cc2C(C)C)cn2ncnc12` (single isomer, unassigned) [Example 262, 1-(4-(1,4-oxazepan-4-yl)cyclohexyl)-6-isopropyl-5-(8-methoxy-7-methyl-[1,2,4]triazolo[1,5-a]pyridin-6-yl)-1,3-dihydro-2H-benzo[d]imidazol-2-one], with 0.68 nM.
Then `Cc1cc2c(cc1-c1cc(C)c3ncnn3c1)[nH]c(=O)n2[C@H]1CC[C@@H](NCCC(F)(F)F)CC1` [Example 31], with 1.32 nM; and `Cc1cc2c(cc1-c1cc(C)c3ncnn3c1)[nH]c(=O)n2[C@@H]1CCCN(CC(C)(C)C)C1` [Example 26, (R)-6-methyl-5-(8-methyl-[1,2,4]triazolo[1,5-a]pyridin-6-yl)-1-(1-neopentylpiperidin-3-yl)-1,3-dihydro-2H-benzo[d]imidazol-2-one], with 384 nM; and `CCN[C@H]1CC[C@H](n2c(=O)[nH]c3cc(-c4cc(C)c5ncnn5c4)c(C)cc32)CC1` [Example 24, 1-((1r,4s)-4-(ethylamino)cyclohexyl)-6-methyl-5-(8-methyl-[1,2,4]triazolo[1,5-a]pyridin-6-yl)-1,3-dihydro-2H-benzo[d]imidazol-2-one], with 6.74 nM.
Then `CCc1cc2c(cc1-c1cc(OC)c3ncnn3c1)[nH]c(=O)n2[C@@H]1CCCNC1` [119 FB, (R)-6-ethyl-5-(8-methoxy-[1,2,4]triazolo[1,5-a]pyridin-6-yl)-1-(piperidin-3-yl)-1,3-dihydro-2H-benzo[d]imidazol-2-one], with 6.99 nM; and `COc1cc(-c2cc3[nH]c(=O)n(C4CCC(N5CC6(COC6)C5)CC4)c3cc2C(C)C)cn2ncnc12` (centres unmarked) [Example 254, 1-(4-(2-oxa-6-azaspiro[3.3]heptan-6-yl)cyclohexyl)-6-isopropyl-5-(8-methoxy-[1,2,4]triazolo[1,5-a]pyridin-6-yl)-1,3-dihydro-2H-benzo[d]imidazol-2-one], with 3.38 nM; and `COc1c(C)c(-c2cc3[nH]c(=O)n(C4CCC(N5CCCOCC5)CC4)c3cc2C(C)C)cn2ncnc12` (single isomer, unassigned) [Example 261, 1-(4-(1,4-oxazepan-4-yl)cyclohexyl)-6-isopropyl-5-(8-methoxy-7-methyl-[1,2,4]triazolo[1,5-a]pyridin-6-yl)-1,3-dihydro-2H-benzo[d]imidazol-2-one], with 2.23 nM.
Compound `COc1cc(-c2ccc3c(c2)[nH]c(=O)n3C2CCNCC2)cn2ncnc12` [1 EI, 5-(8-methoxy-[1,2,4]triazolo[1,5-a]pyridin-6-yl)-1-(piperidin-4-yl)-1,3-dihydro-2H-benzo[d]imidazol-2-one] showed an IC50 of over 3130 nM.
Compound `Cc1cc2c(cc1-c1cc(C)c3ncnn3c1)[nH]c(=O)n2[C@H]1CC[C@H](N(C)C)CC1` [Example 23, 1-((1r,4r)-4-(dimethylamino)cyclohexyl)-6-methyl-5-(8-methyl-[1,2,4]triazolo[1,5-a]pyridin-6-yl)-1,3-dihydro-2H-benzo[d]imidazol-2-one] displayed an IC50 of 30.9 nM.
The result for `CCN[C@H]1CC[C@@H](n2c(=O)[nH]c3cc(-c4cc(C)c5ncnn5c4)c(C)cc32)CC1` [Example 21, 1-((1s,4s)-4-(ethylamino)cyclohexyl)-6-methyl-5-(8-methyl-[1,2,4]triazolo[1,5-a]pyridin-6-yl)-1,3-dihydro-2H-benzo[d]imidazol-2-one] reads 13.3 nM.
Take `CCN(CC)[C@H]1CC[C@@H](n2c(=O)[nH]c3cc(-c4cc(C)c5ncnn5c4)c(C)cc32)CC1` [Example 20, 1-((1s,4s)-4-(diethylamino)cyclohexyl)-6-methyl-5-(8-methyl-[1,2,4]triazolo[1,5-a]pyridin-6-yl)-1,3-dihydro-2H-benzo[d]imidazol-2-one]: the midpoint of inhibition, the IC50, lay at 14.4 nM.
The result for `Cc1c(-c2cc3[nH]c(=O)n(C4CCC(N5CCCOCC5)CC4)c3cc2C(C)C)cn2ncnc2c1C` (centres unmarked) [Example 271, 1-(4-(1,4-oxazepan-4-yl)cyclohexyl)-5-(7,8-dimethyl-[1,2,4]triazolo[1,5-a]pyridin-6-yl)-6-isopropyl-1,3-dihydro-2H-benzo[d]imidazol-2-one] reads 0.36 nM; that for `COc1cc(-c2cc3[nH]c(=O)n(C4CCC(N(C)CCC(F)(F)F)CC4)c3cc2C(C)C)cn2ncnc12` (single isomer, unassigned) [Example 248, 6-isopropyl-5-(8-methoxy-[1,2,4]triazolo[1,5-a]pyridin-6-yl)-1-(4-(methyl(3,3,3-trifluoropropyl)amino)cyclohexyl)-1,3-dihydro-2H-benzo[d]imidazol-2-one], 0.17 nM; that for `COc1cc(-c2cc3[nH]c(=O)n(C4CCC(N5CCC(F)(F)CC5)CC4)c3cc2C(C)C)cn2ncnc12` (single isomer, unassigned) [Example 246, 1-(4-(4,4-difluoropiperidin-1-yl)cyclohexyl)-6-isopropyl-5-(8-methoxy-[1,2,4]triazolo[1,5-a]pyridin-6-yl)-1,3-dihydro-2H-benzo[d]imidazol-2-one], 0.16 nM.
`COc1cc(-c2cc3[nH]c(=O)n(C4CCC(N5CC[C@H](F)C5)CC4)c3cc2C(C)C)cn2ncnc12` (stereo partly drawn) [Example 287, (S)-1-(4-(3-fluoropyrrolidin-1-yl)cyclohexyl)-6-isopropyl-5-(8-methoxy-[1,2,4]triazolo[1,5-a]pyridin-6-yl)-1,3-dihydro-2H-benzo[d]imidazol-2-one] showed an IC50 of 1.66 nM.
Then `COc1c(C)c(-c2cc3[nH]c(=O)n(C4CCC(N5CCC6(CC5)COC6)CC4)c3cc2C(C)C)cn2ncnc12` (single isomer, unassigned) [Example 267, 1-(4-(2-oxa-7-azaspiro[3.5]nonan-7-yl)cyclohexyl)-6-isopropyl-5-(8-methoxy-7-methyl-[1,2,4]triazolo[1,5-a]pyridin-6-yl)-1,3-dihydro-2H-benzo[d]imidazol-2-one], with 0.12 nM; and `Cc1cc2c(cc1-c1cc(C)c3ncnn3c1)[nH]c(=O)n2[C@@H]1CCCN(CCC(F)(F)F)C1` [Example 29, (R)-6-methyl-5-(8-methyl-[1,2,4]triazolo[1,5-a]pyridin-6-yl)-1-(1-(3,3,3-trifluoropropyl)piperidin-3-yl)-1,3-dihydro-2H-benzo[d]imidazol-2-one], with 49.5 nM.
